{
  "source": "BindingDB's records for patent US20240239813",
  "about": "(Risen (Suzhou) Pharma Tech Co., 2024)",
  "data": [
    {"biological_target": "GTPase KRas [G12D] (Homo sapiens, UniProt P01116, G12D)", "sequence (P01116 whole entry G12D)": "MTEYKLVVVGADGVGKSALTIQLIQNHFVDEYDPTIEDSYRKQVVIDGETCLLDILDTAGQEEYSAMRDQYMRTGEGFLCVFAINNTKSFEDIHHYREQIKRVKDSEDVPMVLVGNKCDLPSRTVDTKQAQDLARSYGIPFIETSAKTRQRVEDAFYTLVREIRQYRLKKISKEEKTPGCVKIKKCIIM", "test": "KRAS Binding Assay", "description": "The ability of a test compound to bind to KRASG12D was measured by using an HTRF KRASG12D GTP Binding Kit (Cisbio, 63ADK000CB27PEG). […] 5 μL of compound solution was added to each well after serial dilution, followed by addition of 5 μL of GDP (50 nM) solution. After 30 minutes incubation at room temperature, 1×6His Eu cryptate antibody solution and GTP-Red tracer were added to the plate, then incubated for another 30 minutes. The HTRF signal was measured with a VICTOR Nivo multimode plate reader according to the manufacturer's instructions.", "units": {"IC50": "nM"}, "values": [
      {"smiles": "Oc1cc(-c2ncc3c(N4CCCC5(CCO5)C4)nc(OC[C@@]45CCCN4C[C@H](F)C5)nc3c2F)c2ccccc2c1", "note": "(some centres undefined) [US20240239813, Compound 8a]", "IC50": "> 1000"},
      {"smiles": "CCc1c(F)ccc2cc(O)cc(-c3ncc4c(N5[C@@H]6CC[C@H]5C[C@@H](O)C6)nc(OC[C@@]56CCCN5C[C@H](F)C6)nc4c3F)c12", "note": "[US20240239813, Compound 10]", "IC50": 881},
      {"smiles": "CCc1c(F)ccc2cc(O)cc(-c3ncc4c(N5[C@@H]6CC[C@H]5C[C@H](O)C6)nc(OC[C@@]56CCCN5C[C@H](F)C6)nc4c3F)c12", "note": "[US20240239813, Compound 11]", "IC50": "> 1000"},
      {"smiles": "CN(C)CC1(COc2nc(N3CCC[C@]4(CCO4)C3)c3cnc(-c4cc(N)ccc4-c4cccs4)c(F)c3n2)CC1", "note": "[US20240239813, Compound 17a]", "IC50": "> 1000"},
      {"smiles": "CCc1c(F)ccc2cc(OC(=O)C(C)C)cc(-c3ncc4c(N5CCC[C@]6(CCO6)C5)nc(OCC5(CN(C)C)CC5)nc4c3F)c12", "note": "[US20240239813, Compound 22a]", "IC50": "> 1000"},
      {"smiles": "CCc1c(F)ccc2cc(OC(=O)N(C)C)cc(-c3ncc4c(N5CCC[C@]6(CCO6)C5)nc(OCC5(CN(C)C)CC5)nc4c3F)c12", "note": "[US20240239813, Compound 24a]", "IC50": "> 1000"},
      {"smiles": "CCc1c(F)ccc2cc(O)cc(-c3ncc4c(N5CCC(O)(CO)CC5)nc(OC[C@@]56CCCN5C[C@H](F)C6)nc4c3F)c12", "note": "[US20240239813, Compound 41]", "IC50": "> 1000"},
      {"smiles": "CCc1c(F)ccc2cc(O)cc(-c3ncc4c(N5C[C@H](O)[C@@H](O)[C@H](O)[C@H]5CO)nc(OC[C@@]56CCCN5C[C@H](F)C6)nc4c3F)c12", "note": "[US20240239813, Compound 51]", "IC50": "> 1000"},
      {"smiles": "Cc1ccc2[nH]ncc2c1-c1ncc2c(N3CCCC4(CCO4)C3)nc(OC[C@@]34CCCN3C[C@H](F)C4)nc2c1F", "note": "(some centres undefined) [US20240239813, Compound 71]", "IC50": "> 1000"}
    ]}
  ]
}
